# Measured values taken from US20250333383A1, “N-OXIDE COMPOUNDS AND USE THEREOF” (SK BIOPHARMACEUTICALS CO., LTD., priority 2022, published 2025).
# Target: T1, human Nav1.7 channels (Homo sapiens, UniProt Q15858)
# T1 construct: host or cells: HEK293
# Assay: hNav1.7 channel assay, whole cell patch clamp, two-pulse protocol
# Assay type: cell-based
# Conditions: TP2 (inactivated phase inhibition), HEK293 cells stably expressing human Nav1.7, read-out: Inhibition activity: percent inhibition on the inactivated state of hNav1.7
# Description: Whole cell patch clamp technique was used to investigate the inhibitory effects of the compound of Examples on human Nav1.7 channels, stably expressed in HEK293 cells. Human Nav1.7 recombinant cell line (CYL3011-precisION) was purchased from Eurofins.
# Two-pulse protocol was used every 10 seconds to assess the state-dependent inhibition by Examples. From the holding potential of −90 mV, pre-pulse (200 ms at −120 mV) was followed by test pulse1 ([…]), then test pulse2 (TP2: 20 ms at 0 mV) was evoked after inter-pulse (20 ms at −100 mV).
# Peak current amplitudes were measured for test pulses TP1 (resting phase inhibition) and TP2 (inactivated phase inhibition). The following solutions were used for screening assay: External (mM): 145 NaCl, 1 MgCl2, 1.8 CaCl2, 10 Hepes, 5 Glucose, pH 7.4, 300 mOsm; Internal (mM): 120 CsF, 10 NaCl, 10 EGTA, 10 HEPES, pH 7.2, 290 mOsm.
# The inhibition on the inactivated state of hNav1.7 was calculated as: % inhibition (inactivation state)=(1−(ITP2, TA/ITP2, Control)×100%, where ITP2 (the inward peak Na+ currents), Control and ITP2, TA were elicited by the TP2 in control (vehicle only) and in the presence of a test article (TA) indicating Examples, respectively.
# T1 sequence (Q15858 whole entry): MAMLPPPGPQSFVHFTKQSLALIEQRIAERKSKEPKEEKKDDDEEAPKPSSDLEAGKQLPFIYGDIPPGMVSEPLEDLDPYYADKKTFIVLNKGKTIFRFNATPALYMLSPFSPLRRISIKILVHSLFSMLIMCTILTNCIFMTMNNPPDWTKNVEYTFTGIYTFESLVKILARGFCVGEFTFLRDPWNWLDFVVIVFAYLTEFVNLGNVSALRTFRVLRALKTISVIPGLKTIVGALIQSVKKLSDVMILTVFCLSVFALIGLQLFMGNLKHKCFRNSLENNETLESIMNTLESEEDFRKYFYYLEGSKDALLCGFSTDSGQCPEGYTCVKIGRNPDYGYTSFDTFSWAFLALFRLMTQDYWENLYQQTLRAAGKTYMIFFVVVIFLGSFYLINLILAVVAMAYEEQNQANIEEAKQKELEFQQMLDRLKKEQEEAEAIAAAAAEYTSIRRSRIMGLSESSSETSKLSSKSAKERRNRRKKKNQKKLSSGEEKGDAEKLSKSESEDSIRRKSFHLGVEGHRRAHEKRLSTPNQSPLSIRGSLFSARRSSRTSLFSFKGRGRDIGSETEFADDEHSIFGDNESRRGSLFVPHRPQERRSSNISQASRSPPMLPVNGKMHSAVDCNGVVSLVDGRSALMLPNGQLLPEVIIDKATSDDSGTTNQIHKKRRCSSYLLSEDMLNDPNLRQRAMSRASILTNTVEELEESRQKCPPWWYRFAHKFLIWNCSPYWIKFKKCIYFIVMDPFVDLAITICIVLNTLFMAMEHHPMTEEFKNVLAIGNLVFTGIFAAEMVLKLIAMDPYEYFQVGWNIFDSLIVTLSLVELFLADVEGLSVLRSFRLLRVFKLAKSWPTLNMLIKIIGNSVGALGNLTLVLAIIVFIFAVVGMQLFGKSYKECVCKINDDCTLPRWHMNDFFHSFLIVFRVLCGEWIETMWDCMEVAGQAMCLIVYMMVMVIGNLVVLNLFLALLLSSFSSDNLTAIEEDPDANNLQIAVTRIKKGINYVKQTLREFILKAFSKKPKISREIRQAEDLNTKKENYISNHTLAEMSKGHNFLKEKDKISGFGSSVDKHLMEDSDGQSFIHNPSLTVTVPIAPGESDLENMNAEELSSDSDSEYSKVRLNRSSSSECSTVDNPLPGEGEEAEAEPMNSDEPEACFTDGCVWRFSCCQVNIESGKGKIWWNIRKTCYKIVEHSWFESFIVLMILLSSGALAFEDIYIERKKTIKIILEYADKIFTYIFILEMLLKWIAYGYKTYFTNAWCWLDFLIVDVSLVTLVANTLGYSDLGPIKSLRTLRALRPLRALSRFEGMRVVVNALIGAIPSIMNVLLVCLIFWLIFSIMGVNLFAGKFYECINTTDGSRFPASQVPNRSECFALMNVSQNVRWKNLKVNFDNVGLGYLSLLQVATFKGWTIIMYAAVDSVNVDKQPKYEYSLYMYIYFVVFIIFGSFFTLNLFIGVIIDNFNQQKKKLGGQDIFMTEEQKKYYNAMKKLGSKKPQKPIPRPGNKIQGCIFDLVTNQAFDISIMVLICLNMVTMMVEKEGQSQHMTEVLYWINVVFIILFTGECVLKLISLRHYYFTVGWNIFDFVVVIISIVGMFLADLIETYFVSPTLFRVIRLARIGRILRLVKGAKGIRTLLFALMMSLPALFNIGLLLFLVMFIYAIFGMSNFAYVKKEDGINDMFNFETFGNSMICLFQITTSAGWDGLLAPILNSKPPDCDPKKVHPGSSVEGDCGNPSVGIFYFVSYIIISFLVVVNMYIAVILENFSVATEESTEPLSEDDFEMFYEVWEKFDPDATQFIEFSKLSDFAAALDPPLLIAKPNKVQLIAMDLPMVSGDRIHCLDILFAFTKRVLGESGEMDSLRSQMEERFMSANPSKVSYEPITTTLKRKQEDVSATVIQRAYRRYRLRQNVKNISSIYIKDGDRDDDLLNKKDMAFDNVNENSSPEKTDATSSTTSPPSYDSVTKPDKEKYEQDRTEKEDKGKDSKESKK
row,SMILES,inhibition at 10 µM
1,"O=C(NCc1cccc[n+]1[O-])c1cccc(-c2ccc(C(F)(F)F)cc2)c1 [Example 1, N-[(1-oxidopyridin-1-ium-2-yl)methyl]-3-[4-(trifluoromethyl)phenyl]benzamide]",70 to 100%
2,"O=C(NCc1cccc[n+]1[O-])c1cccc(-c2cccc(Cl)c2)c1 [Example 4, 3-(3-chlorophenyl)-N-[(1-oxidopyridin-1-ium-2-yl)methyl]benzamide]",40 to 70%
3,"O=C(NCc1cccc[n+]1[O-])c1cccc(-c2cccc(C(F)(F)F)c2)c1 [Example 5, N-[(1-oxidopyridin-1-ium-2-yl)methyl]-3-[3-(trifluoromethyl)phenyl]benzamide]",40 to 70%
4,"O=C(NCc1cccc[n+]1[O-])c1cccc(-c2ccc(Cl)c(Cl)c2)c1 [Example 6, 3-(3,4-dichlorophenyl)-N-[(1-oxidopyridin-1-ium-2-yl)methyl]benzamide]",70 to 100%
5,"O=C(NCc1cccc[n+]1[O-])c1cccc(-c2cccc(OC(F)(F)F)c2)c1 [Example 8, N-[(1-oxidopyridin-1-ium-2-yl)methyl]-3-[3-(trifluoromethoxy)phenyl]benzamide]",40 to 70%
6,"O=C(NCc1cccc[n+]1[O-])c1cccc(-c2cc(Cl)ccc2Cl)c1 [Example 10, 3-(2,5-dichlorophenyl)-N-[(1-oxidopyridin-1-ium-2-yl)methyl]benzamide]",40 to 70%
7,"O=C(NCc1cccc[n+]1[O-])c1cccc(-c2ccc(C(F)(F)F)cc2C(F)(F)F)c1 [Example 11, 3-[2,4-bis(trifluoromethyl)phenyl]-N-[(1-oxidopyridin-1-ium-2-yl)methyl]benzamide]",70 to 100%
8,"O=C(NCc1cccc[n+]1[O-])c1cccc(-c2ccccc2)c1 [Example 12, N-[(1-oxidopyridin-1-ium-2-yl)methyl]-3-phenyl-benzamide]",40 to 70%
9,"CC(C)(C)c1ccc(-c2cccc(C(=O)NCc3cccc[n+]3[O-])c2)cc1 [Example 13, 3-(4-tert-butylphenyl)-N-[(1-oxidopyridin-1-ium-2-yl)methyl]benzamide]",40 to 70%
10,"O=C(NCc1cccc[n+]1[O-])c1cccc(-c2ccc(C(F)(F)F)cc2F)c1 [Example 16, 3-[2-fluoro-4-(trifluoromethyl)phenyl]-N-[(1-oxidopyridin-1-ium-2-yl)methyl]benzamide]",40 to 70%
11,"O=C(NCc1cccc[n+]1[O-])c1cccc(-c2ccc(F)cc2)c1 [Example 18, 3-(4-fluorophenyl)-N-[(1-oxidopyridin-1-ium-2-yl)methyl]benzamide]",40 to 70%
12,"O=C(NCc1cccc[n+]1[O-])c1cccc(-c2ccccc2C(F)(F)F)c1 [Example 21, N-[(1-oxidopyridin-1-ium-2-yl)methyl]-3-[2-(trifluoromethyl)phenyl]benzamide]",40 to 70%
13,"Cc1cccc(-c2cccc(C(=O)NCc3cccc[n+]3[O-])c2)c1 [Example 23, 3-(m-tolyl)-N-[(1-oxidopyridin-1-ium-2-yl)methyl]benzamide]",40 to 70%
14,"CC(C)c1ccc(-c2cccc(C(=O)NCc3cccc[n+]3[O-])c2)cc1 [Example 24, 3-(4-isopropylphenyl)-N-[(1-oxidopyridin-1-ium-2-yl)methyl]benzamide]",10 to 40%
15,"O=C(NCc1cccc[n+]1[O-])c1cccc(-c2ccccc2F)c1 [Example 25, 3-(2-fluorophenyl)-N-[(1-oxidopyridin-1-ium-2-yl)methyl]benzamide]",70 to 100%
16,"O=C(NCc1cccc[n+]1[O-])c1cccc(-c2cc(F)cc(Cl)c2)c1 [Example 29, 3-(3-chloro-5-fluoro-phenyl)-N-[(1-oxidopyridin-1-ium-2-yl)methyl]benzamide]",70 to 100%
17,"O=C(NCc1cccc[n+]1[O-])c1cccc(-c2ccc(F)cc2F)c1 [Example 31, 3-(2,4-difluorophenyl)-N-[(1-oxidopyridin-1-ium-2-yl)methyl]benzamide]",40 to 70%
18,"O=C(NCc1cccc[n+]1[O-])c1cccc(-c2cc(F)cc(F)c2)c1 [Example 32, 3-(3,5-difluorophenyl)-N-[(1-oxidopyridin-1-ium-2-yl)methyl]benzamide]",70 to 100%
19,"O=C(NCc1cccc[n+]1[O-])c1cccc(-c2cc(F)c(F)c(F)c2)c1 [Example 33, N-[(1-oxidopyridin-1-ium-2-yl)methyl]-3-(3,4,5-trifluorophenyl)benzamide]",10 to 40%
20,"Cc1cc(C(F)(F)F)ccc1-c1cccc(C(=O)NCc2cccc[n+]2[O-])c1 [Example 38, 3-[2-methyl-4-(trifluoromethyl)phenyl]-N-[(1-oxidopyridin-1-ium-2-yl)methyl]benzamide]",40 to 70%

# Now from value to compound:
row,inhibition at 10 µM,SMILES
1,40 to 70%,"O=C(NCc1cccc[n+]1[O-])c1cccc(-c2cc(Cl)cc(Cl)c2)c1 [Example 7, 3-(3,5-dichlorophenyl)-N-[(1-oxidopyridin-1-ium-2-yl)methyl]benzamide]"
2,70 to 100%,"O=C(NCc1cccc[n+]1[O-])c1cccc(-c2ccc(Cl)cc2Cl)c1 [Example 9, 3-(2,4-dichlorophenyl)-N-[(1-oxidopyridin-1-ium-2-yl)methyl]benzamide]"
3,40 to 70%,"Cc1cc(Cl)ccc1-c1cccc(C(=O)NCc2cccc[n+]2[O-])c1 [Example 15, 3-(4-chloro-2-methyl-phenyl)-N-[(1-oxidopyridin-1-ium-2-yl)methyl]benzamide]"
4,40 to 70%,"O=C(NCc1cccc[n+]1[O-])c1cccc(-c2ccc(F)c(Cl)c2)c1 [Example 17, 3-(3-chloro-4-fluoro-phenyl)-N-[(1-oxidopyridin-1-ium-2-yl)methyl]benzamide]"
5,40 to 70%,"O=C(NCc1cccc[n+]1[O-])c1cccc(-c2ccccc2Cl)c1 [Example 20, 3-(2-chlorophenyl)-N-[(1-oxidopyridin-1-ium-2-yl)methyl]benzamide]"
6,10 to 40%,"COc1cc(Cl)ccc1-c1cccc(C(=O)NCc2cccc[n+]2[O-])c1 [Example 26, 3-(4-chloro-2-methoxy-phenyl)-N-[(1-oxidopyridin-1-ium-2-yl)methyl]benzamide]"
7,70 to 100%,"Cc1cc(-c2cccc(C(=O)NCc3cccc[n+]3[O-])c2)ccc1Cl [Example 28, 3-(4-chloro-3-methyl-phenyl)-N-[(1-oxidopyridin-1-ium-2-yl)methyl]benzamide]"
8,40 to 70%,"O=C(NCc1cccc[n+]1[O-])c1cccc(-c2ccc(Cl)c(F)c2)c1 [Example 30, 3-(4-chloro-3-fluoro-phenyl)-N-[(1-oxidopyridin-1-ium-2-yl)methyl]benzamide]"
9,10 to 40%,"O=C(NCc1cccc[n+]1[O-])c1cccc(-c2cccc(F)c2F)c1 [Example 34, 3-(2,3-difluorophenyl)-N-[(1-oxidopyridin-1-ium-2-yl)methyl]benzamide]"
10,70 to 100%,"CC(C)c1cccc(-c2cccc(C(=O)NCc3cccc[n+]3[O-])c2)c1 [Example 35, 3-(3-isopropylphenyl)-N-[(1-oxidopyridin-1-ium-2-yl)methyl]benzamide]"
11,40 to 70%,"O=C(NCc1cccc[n+]1[O-])c1cccc(-c2ccc(C3CC3)cc2)c1 [Example 36, 3-(4-cyclopropylphenyl)-N-[(1-oxidopyridin-1-ium-2-yl)methyl]benzamide]"
